The values that follow come from ChEMBL document CHEMBL3769388, “Optimization of a Dicarboxylic Series for in Vivo Inhibition of Citrate Transport by the Solute Carrier 13 (SLC13) Family” (J Med Chem, 2016).

Data set [1] deals with T1, Na(+)/citrate cotransporter (Homo sapiens, UniProt Q86YT5). The experiment in a line: Inhibition of NaCT (unknown origin) expressed in HEK293 cells assessed as inhibition of [14C]citrate uptake by microbeta plate reader analysis. Format: cell-based.
Data set [2] in a line: AUC(0 to t) in Wistar Han rat at 5 mg/kg, po by LC-MS/MS analysis. Format: ADME, organism-based. Conditions: in vivo.
Data set [3] is described as follows: Fraction unbound in Wistar Han rat by equilibrium dialysis method. Format: ADME. In general terms: In equilibrium dialysis only unbound substance equilibrates across the membrane.
A short description of data set [4]: Half life in Wistar Han rat at 1 mg/kg, iv by LC-MS/MS analysis. Format: ADME, organism-based. Conditions: in vivo.
Data set [5] can be described thus: Volume of distribution at steady state in Wistar Han rat at 1 mg/kg, iv by LC-MS/MS analysis. Format: ADME, organism-based. Conditions: in vivo, read-out: Vdss.
Data set [6] can be described thus: Total plasma clearance in Wistar Han rat at 1 mg/kg, iv by LC-MS/MS analysis. Format: ADME, organism-based.
Data set [7] is described as follows: Renal clearance in Wistar Han rat at 1 mg/kg, iv by LC-MS/MS analysis. Conditions: in vivo. Format: ADME, organism-based, Kidney.
The target of data set [8] is T1, Na(+)/citrate cotransporter. The experiment in a line: Inhibition of NaCT in human hepatocytes assessed as [14C]-citrate uptake after 30 mins by scintillation counting method. Format: cell-based, Hepatocyte.
Data set [9] in a line: Passive permeability in MDCK cells. Format: ADME, cell-based, Canis lupus familiaris. Conditions: dog.
For data set [10], the target named is T2, Solute carrier family 13 member 2 (Homo sapiens, UniProt Q13183).
T2 sequence (Q13183 whole entry): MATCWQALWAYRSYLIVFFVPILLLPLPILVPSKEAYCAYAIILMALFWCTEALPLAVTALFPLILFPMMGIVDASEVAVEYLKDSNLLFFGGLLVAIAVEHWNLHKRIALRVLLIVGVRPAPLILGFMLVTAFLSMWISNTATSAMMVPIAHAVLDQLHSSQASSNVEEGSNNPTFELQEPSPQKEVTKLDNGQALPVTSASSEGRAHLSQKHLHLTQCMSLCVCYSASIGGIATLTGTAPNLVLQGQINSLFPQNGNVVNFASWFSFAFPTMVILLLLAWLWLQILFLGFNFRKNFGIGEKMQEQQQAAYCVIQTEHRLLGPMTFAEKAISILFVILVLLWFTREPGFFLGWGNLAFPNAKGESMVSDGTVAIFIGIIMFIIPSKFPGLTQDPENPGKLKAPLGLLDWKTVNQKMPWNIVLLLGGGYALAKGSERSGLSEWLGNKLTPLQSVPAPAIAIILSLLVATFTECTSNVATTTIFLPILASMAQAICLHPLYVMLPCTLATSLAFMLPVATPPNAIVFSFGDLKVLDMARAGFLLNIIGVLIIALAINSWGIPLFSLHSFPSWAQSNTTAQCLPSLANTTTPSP
Description: Inhibition of NaDC1 (unknown origin) expressed in HEK293 cells assessed as inhibition of [14C]citrate uptake by microbeta plate reader analysis. Format: cell-based. Conditions: read-out: IC50.

Data set [11] in a line: Clearance in human hepatocytes assessed per 10^6 cells. Format: ADME, cell-based, Hepatocyte. Conditions: read-out: CLH.

T1 sequence (Q86YT5 whole entry): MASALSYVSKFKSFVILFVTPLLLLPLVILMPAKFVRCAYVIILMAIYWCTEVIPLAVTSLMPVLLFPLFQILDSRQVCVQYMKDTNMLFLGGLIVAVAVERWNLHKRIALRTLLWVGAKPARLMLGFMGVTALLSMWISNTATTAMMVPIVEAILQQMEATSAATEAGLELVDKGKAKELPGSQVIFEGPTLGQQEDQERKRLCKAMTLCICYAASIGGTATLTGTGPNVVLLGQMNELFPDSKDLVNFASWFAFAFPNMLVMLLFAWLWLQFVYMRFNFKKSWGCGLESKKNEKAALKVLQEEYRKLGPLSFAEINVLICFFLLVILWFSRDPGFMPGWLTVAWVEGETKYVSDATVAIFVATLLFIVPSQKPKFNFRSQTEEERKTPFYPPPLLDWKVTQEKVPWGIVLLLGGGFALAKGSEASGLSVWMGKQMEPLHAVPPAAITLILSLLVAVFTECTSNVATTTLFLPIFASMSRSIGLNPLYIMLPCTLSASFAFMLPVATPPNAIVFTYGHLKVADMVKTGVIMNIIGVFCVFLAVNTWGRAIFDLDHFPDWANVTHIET

On to `COc1ncccc1CCC(O)(CC(=O)O)C(=O)O` (racemic), for which the IC50 in [1] (read-out: IC50) came to 3.37 µM.

Consider `O=C(O)CC(O)(CCc1ccccc1)C(=O)O` (racemic), for which the IC50 in data set [1] (read-out: IC50) is above 17 µM.

`COc1ncc(C)cc1CC[C@](O)(CC(=O)O)C(=O)O`: the exposure AUC(0-t) (in general, exposure summed from dosing to a finite time, without extrapolation to infinity) in [2] amounted to 499 ng·h/mL. Further, in [3], the fraction unbound (commonly the share of the substance not bound to proteins or other matrix) is 0.058. The half-life (usually the time needed for the level to fall by half in the phase considered) in data set [4] was 1 h. Further, the Vd in [5] was 0.2 L/kg. In addition, the clearance (commonly the rate of elimination divided by the concentration) in data set [6] was 9.9 mL/min/kg. Besides, the IC50 in data set [1] (read-out: IC50) was above 18 µM. Also, the CL renal in data set [7] is 2.8 mL/min/kg.

Consider `COc1ncc(C)cc1CCC(O)(CC(=O)O)C(=O)O` (racemic), for which the IC50 in [1] (read-out: IC50) is 0.65 µM; in [1] (read-out: pIC50 (converted)) it was 0.316 µM.

For the molecule `CCOc1ncccc1CCC(O)(CC(=O)O)C(=O)O` (racemic), in [1] (read-out: IC50), the IC50 is 0.11 µM.

Molecule `CC(C)(C)c1ccc(CCC(O)(CC(=O)O)C(=O)O)cc1` (racemic) yielded an area under the curve AUC(0-t) in data set [2] of 1850 ng·h/mL. In addition, the fraction unbound in data set [3] is 0.073. This molecule also showed a half-life in data set [4] of 1.2 h. Further, in [5], the Vd amounted to 0.45 L/kg. Further, the clearance in data set [6] came out at 8.5 mL/min/kg. In data set [7], this molecule had a CL renal of 1.9 mL/min/kg.

For `CCOc1ncccc1CC[C@](O)(CC(=O)O)C(=O)O`, the figures for the IC50 in data set [8] and in [1] (read-out: IC50) were above 30 µM and above 25 µM, respectively.

`CCOc1ncccc1CC[C@@](O)(CC(=O)O)C(=O)O` registered an exposure AUC(0-t) in data set [2] of 2650 ng·h/mL. Besides, the unbound share (fraction unbound) in data set [3] worked out at 0.086. In data set [4], the half-life is 0.9 h. Moreover, the IC50 was found to be 0.33 µM in data set [8] and 0.11 µM in [1] (read-out: IC50). Besides, in data set [5], the Vd came to 0.13 L/kg. In addition, in data set [6], the clearance was found to be 6.7 mL/min/kg. The molecule further displayed a CL renal in [7] of 1.8 mL/min/kg.

Take `CCOc1ncc(C)cc1CCC(O)(CC(=O)O)C(=O)O` (racemic): the IC50 in [1] (read-out: IC50) is 0.19 µM.

For `COc1ccc(C)cc1CCC(O)(CC(=O)O)C(=O)O` (racemic), in data set [1] (read-out: IC50), the IC50 was 1.65 µM.

For the molecule `CC(C)Oc1ncccc1CCC(O)(CC(=O)O)C(=O)O` (racemic), in data set [1] (read-out: IC50), the IC50 stood at 0.33 µM.

Take `CC(C)(C)c1ccc(CC[C@@](O)(CC(=O)O)C(=O)O)cc1`: the AUC(0-t) in data set [2] turned out to be 2570 ng·h/mL. The Papp (in general, the rate of passage across a membrane or cell layer, normalised by area and donor concentration) in data set [9] was 1 ×10⁻⁶ cm/s. Also, the fraction unbound in data set [3] was 0.054. In addition, the half-life in data set [4] was 1 h. In addition, in [5], the Vd is 0.24 L/kg. This molecule also came in with a clearance in [6] of 4.5 mL/min/kg. In addition, the IC50 in data set [10] was above 100 µM. For the same molecule, the hepatocyte CLint in data set [11] was below 6 µL/min/1e6 cells. This molecule also showed a CL renal in data set [7] of 0.5 mL/min/kg.
